These results are taken from ChEMBL document CHEMBL5625167, “In vitro bioevaluation and docking study of dihydrosphingosine and ethambutol analogues against sensitive and multi-drug resistant Mycobacterium tuberculosis” (Eur J Med Chem, 2023).

Converted amounts (≈) assume the structure as drawn.

One data set relates to Klebsiella pneumoniae. The data set is described as follows: Antibacterial activity against Klebsiella pneumoniae ATCC 13883 incubated for 18 hrs by resazurin dye based broth microdilution method. The format is functional. On the technique in general: Alamar Blue is a resazurin reagent that responds to reducing activity.
The nature of data set [1]: Cytotoxicity against mouse J774.A1 cells assessed as reduction in cell population incubated for 48 hrs by MTT assay. The format is toxicity, cell-based.
In data set [2] the test system is Mycolicibacterium smegmatis. In words: Antimycobacterial activity against Mycobacterium smegmatis ATCC607 incubated for 24 hrs by resazurin dye based broth microdilution method. The class given is functional.
Data set [3] has as its system Mycobacterium tuberculosis. The data set is described as follows: Antimycobacterial activity against isoniazid, rifampicin, ethambutol and pyrazinamide sensitive Mycobacterium tuberculosis H37Rv ATCC 25618 assessed as inhibition of bacterial growth incubated for 7 days by resazurin dye based colorimetric method analysis. The format is functional. As to conditions: H37Rv ATCC 25618, 168 h, time 7 day.

In data set [4] the test system is Mycobacterium tuberculosis. The data set is described as follows: Potency index, ratio of ethambutol MIC to test compound MIC for antimycobacterial activity against isoniazid, rifampicin, ethambutol and pyrazinamide sensitive Mycobacterium tuberculosis H37Rv ATCC 25618 assessed as inhibition of bacterial growth incubated for 7 days by resazurin dye based colorimetric method analysis. The class given is functional. Conditions: time 7 day.

For another data set, the system named is Staphylococcus aureus. The data set is described as follows: Antibacterial activity against Staphylococcus aureus ATCC 25923 incubated for 18 hrs by resazurin dye based broth microdilution method. The class given is functional.
The nature of data set [5]: Cytotoxicity against African green monkey Vero cells assessed as reduction in cell population incubated for 48 hrs by MTT assay. The class given is toxicity, cell-based. As to conditions: chlorocebus sabaeus. Background: Formazan colour is commonly taken as a measure of viable cells.
A short description of data set [6]: Cytotoxicity against human HepG2 cells assessed as reduction in cell population incubated for 48 hrs by MTT assay. The format is toxicity, cell-based.

Broadly, the MIC is the lowest concentration that inhibits growth of the organism. Turning to `CC(C)(O/N=C(\C(=O)N[C@@H]1C(=O)N2C(C(=O)[O-])=C(C[n+]3ccccc3)CS[C@H]12)c1csc(N)n1)C(=O)O` [CEFTAZIDIME], inhibition of growth in the data set with Klebsiella pneumoniae (MIC) required 0.5 µM (≈ 0.273 µg/mL).

The term CC50 denotes the concentration that lowers cell viability or growth by half. In the case of `CCCCCCCCCCCCCCCC(N)CN` (stereo not given), the CC50 at 48 h turned out to be 217 µM in data set [1] and 192 µM in data set [5]. The MIC in data set [2] was 512 µM (≈ 138 µg/mL); in data set [3] it was more than 64 µM; against Staphylococcus aureus, more than 512 µM; in the data set on Klebsiella pneumoniae, more than 512 µM. Further, the Ratio in data set [4] was less than 5.6.

For `CCCCCCCCCCCC(CO)N(CC)CC` (stereo not given), the CC50 at 48 h in data set [1] came to 17.6 µM; in data set [5], 36.2 µM. In data set [3], the MIC is 64 µM (≈ 17.4 µg/mL). The Ratio in data set [4] is given as 6.

As for `CCCCc1ccc(CCCCCCCC(CO)NC(=O)OC(C)(C)C)cc1` (stereo not given), the CC50 at 48 h came to 12.9 µM in data set [1] and 28.3 µM in data set [5]. Also, the MIC in data set [3] is 32 µM (≈ 12.5 µg/mL). Moreover, in data set [4], the Ratio is 11.

As for `CCCCCCCCCCCCCCCC(CO)NCCCC` (stereo not given), the CC50 at 48 h was determined as 23.7 µM in data set [1] and 73.4 µM in data set [5]. The MIC in data set [3] turned out to be 64 µM (≈ 21 µg/mL). Besides, the Ratio in data set [4] stood at 6.

As to `CCCCCCCCCCCCCCCC(COCc1ccccc1)NCCCCCC` (stereo not given), the CC50 at 48 h in data set [1] is 54.6 µM; in data set [5], 54 µM. For the same compound, the MIC in data set [3] turned out to be 64 µM (≈ 28.5 µg/mL). Besides, the Ratio in data set [4] turned out to be 6.

With `CCCCCCCCCCCCCCCC(CO)NCCCCCCCCCC` (stereo not given), the CC50 at 48 h in data set [1] amounted to 55.3 µM; in data set [5], 104 µM. Also, the MIC in data set [2] was 128 µM (≈ 52.7 µg/mL); in data set [3], 64 µM (≈ 26.4 µg/mL); in the data set with Staphylococcus aureus, 512 µM (≈ 211 µg/mL); in the data set on Klebsiella pneumoniae, more than 512 µM. Further, the Ratio in data set [4] amounted to 6.

Take `CCCCCCCCCCCC(CNCC)NC(=O)OC(C)(C)C` (stereo not given): the figures for the CC50 at 48 h in data set [1] and in data set [5] were 20.9 µM and 32.3 µM, respectively. Besides, in data set [3], the MIC came out at 64 µM (≈ 21.9 µg/mL). The Ratio in data set [4] turned out to be 6.

On to `CCCCCCCCCCCCCCCC(CO)N(CC)CC` (stereo not given), for which the CC50 at 48 h turned out to be 23.3 µM in data set [1] and 25.1 µM in data set [5]. The MIC in data set [3] amounted to 4 µM (≈ 1.31 µg/mL). For the same compound, the Ratio in data set [4] amounted to 90.

For the compound `CCCCCCCCCCCCCCCCCC(CO)NCCCC` (stereo not given), the results for the CC50 at 48 h in data set [1] and in data set [5] were 31.1 µM and 148 µM, respectively. Further, the MIC in data set [2] is 512 µM (≈ 182 µg/mL); in data set [3], 32 µM (≈ 11.4 µg/mL); in the data set on Staphylococcus aureus it was 512 µM (≈ 182 µg/mL); against Klebsiella pneumoniae, more than 512 µM. Moreover, in data set [4], the Ratio stood at 11.

In the case of `CCCCCCCCCCCCCCCCCCCC(CN)NC(=O)OC(C)(C)C` (stereo not given), the CC50 at 48 h in data set [1] was 36 µM; in data set [5] it was 51.4 µM. The MIC in data set [3] stood at 32 µM (≈ 13.7 µg/mL). The Ratio in data set [4] is reported as 11.

In the data set on Staphylococcus aureus, `Cc1onc(-c2ccccc2)c1C(=O)N[C@@H]1C(=O)N2[C@@H]1SC(C)(C)[C@@H]2C(=O)O` [OXACILLIN] came in with an MIC of 0.25 µM (≈ 0.1 µg/mL).

For the compound `CCCCCCCCCCCCCCCC(CO)NCC` (stereo not given), the CC50 at 48 h is 22.8 µM in data set [1] and 27.7 µM in data set [5]. Moreover, the MIC in data set [3] worked out at 16 µM (≈ 4.79 µg/mL). Moreover, the Ratio in data set [4] amounted to 23.

`CCCCc1ccc(CCCCCC(N)CO)cc1` (stereo not given): the CC50 at 48 h came out at 10.7 µM in data set [1] and 27.8 µM in data set [5]. Moreover, in data set [3], the minimal inhibitory concentration (MIC) is 64 µM (≈ 16.9 µg/mL). Besides, the Ratio in data set [4] was 6.

On to `CCCCCCCCCCCCCCCCCCCC(CO)N(CC)CC` (stereo not given), for which the values for the CC50 at 48 h in data set [1] and in data set [5] were 102 µM and 117 µM, respectively. Further, the MIC in data set [2] was more than 512 µM; in data set [3], more than 64 µM; in the data set on Staphylococcus aureus, more than 512 µM; against Klebsiella pneumoniae, more than 512 µM. For the same compound, the Ratio in data set [4] is reported as less than 5.6.

As for `CCCCc1ccc(CCCCCCCCCC(N)CO)cc1` (stereo not given), the CC50 at 48 h in data set [1] is 11.7 µM; in data set [6], 45.6 µM; in data set [5], 25.4 µM. Besides, the MIC in data set [3] came out at 8 µM (≈ 2.56 µg/mL). The Ratio in data set [4] is given as 45.

As to `CCCCCCCCCCCCCCCCCC(CO)N(CC)CC` (stereo not given), the cytotoxic concentration (CC50) at 48 h in data set [1] turned out to be 49.5 µM; in data set [5], 85.5 µM. In addition, the MIC in data set [2] is more than 512 µM; in data set [3], more than 64 µM; with Staphylococcus aureus it was more than 512 µM; against Klebsiella pneumoniae, more than 512 µM. Also, in data set [4], the Ratio is listed as less than 5.6.

Regarding `CCCCCCCCCCCCCCCC(CN=[N+]=[N-])NC(=O)OC(C)(C)C` (stereo not given), the results for the CC50 at 48 h in data set [1] and in data set [5] were 104 µM and 63.8 µM, respectively. Further, the MIC in data set [2] is more than 512 µM; in data set [3], more than 64 µM; against Staphylococcus aureus it was more than 512 µM; in the data set with Klebsiella pneumoniae, more than 512 µM. In data set [4], the Ratio was less than 5.6.

As for `CCCCc1ccc(CCCCCCCCCC(CO)NC(=O)OC(C)(C)C)cc1` (stereo not given), the figures for the CC50 at 48 h in data set [1] and in data set [5] were 15.8 µM and 31 µM, respectively. Also, the MIC in data set [3] worked out at 32 µM (≈ 13.4 µg/mL). Also, in data set [4], the Ratio is given as 11.

As to `CCCCCCCCCCCCCCCCCC(COCc1ccccc1)NCCCCCC` (stereo not given), the CC50 at 48 h stood at 118 µM in data set [1] and 120 µM in data set [5]. For the same compound, the MIC is more than 512 µM in data set [2], 64 µM (≈ 30.3 µg/mL) in data set [3], more than 512 µM with Staphylococcus aureus and more than 512 µM in the data set with Klebsiella pneumoniae. Moreover, in data set [4], the Ratio is 6.

Take `CCCCc1ccc(CCCCCC(CO)NC(=O)OC(C)(C)C)cc1` (stereo not given): the results for the CC50 at 48 h in data set [1] and in data set [5] were 14.2 µM and 51.5 µM, respectively. Further, the MIC in data set [3] stood at 64 µM (≈ 23.3 µg/mL). For the same compound, in data set [4], the Ratio was found to be 6.

Take `CCCCCCCCCCCCCCCC(CN)NC(=O)OC(C)(C)C` (stereo not given): the figures for the CC50 at 48 h in data set [1] and in data set [5] were 5.18 µM and 21.9 µM, respectively. Further, the minimal inhibitory concentration (MIC) in data set [3] came to 17.6 µM (≈ 6.52 µg/mL). Further, in data set [4], the Ratio turned out to be 20.

`CCCCCCCCCCCC(N)CO` (stereo not given): the CC50 at 48 h in data set [1] is 2.35 µM; in data set [5] it was 40.8 µM. Also, in data set [3], the MIC amounted to 64 µM (≈ 13.8 µg/mL). In addition, the Ratio in data set [4] was found to be 6.

Consider `CCCCCCCCCCCC(CO)NCCCC` (stereo not given), for which the figures for the CC50 at 48 h in data set [1] and in data set [5] were 21.4 µM and 26 µM, respectively. For the same compound, in data set [3], the MIC was found to be 32 µM (≈ 8.69 µg/mL). For the same compound, in data set [4], the Ratio is recorded as 11.

As to `CCCCCCCCCCCCCCCCCC(N)COCc1ccccc1` (stereo not given), the CC50 at 48 h in data set [1] is 93.3 µM; in data set [5] it was 138 µM. Further, the MIC in data set [2] is more than 512 µM; in data set [3] it was 64 µM (≈ 24.9 µg/mL); with Staphylococcus aureus it was more than 512 µM; against Klebsiella pneumoniae, more than 512 µM. For the same compound, the Ratio in data set [4] is 6.

Turning to `CCCCCCCCCCCC(CO)NCC` (stereo not given), the half-maximal cytotoxic concentration (CC50) at 48 h in data set [1] amounted to 10.5 µM; in data set [5] it was 37.3 µM. Also, the MIC in data set [3] was more than 64 µM. Further, the Ratio in data set [4] is recorded as more than 5.6.

Take `CCCCCCCCCCCCCCCC(N)CNCC` (stereo not given): the CC50 at 48 h in data set [1] turned out to be 25.6 µM; in data set [5], 40.1 µM. Also, the MIC in data set [3] is 32 µM (≈ 9.55 µg/mL). Further, the Ratio in data set [4] is 11.

For `CCCCCCCCCCCCCCCCCCCC(N)COCc1ccccc1` (stereo not given), the results for the CC50 at 48 h in data set [1] and in data set [5] were 23 µM and 126 µM, respectively. The MIC in data set [2] is 256 µM (≈ 107 µg/mL); in data set [3], 32 µM (≈ 13.4 µg/mL); with Staphylococcus aureus, more than 512 µM; in the data set with Klebsiella pneumoniae, more than 512 µM. In addition, the Ratio in data set [4] came to 11.

For `CCCCCCCCCCCCCCCC(CO)NCCCCCC` (stereo not given), the figures for the CC50 at 48 h in data set [1] and in data set [5] were 23.8 µM and 113 µM, respectively. The MIC in data set [2] is 256 µM (≈ 91 µg/mL); in data set [3], 64 µM (≈ 22.8 µg/mL); with Staphylococcus aureus, 128 µM (≈ 45.5 µg/mL); against Klebsiella pneumoniae it was more than 512 µM. Also, the Ratio in data set [4] is on record as 6.

`CCCCCCCCCCCCCCCC(CNCC(=O)OCC)NC(=O)OC(C)(C)C` (stereo not given): the values for the CC50 at 48 h in data set [1] and in data set [5] were 27.9 µM and 39 µM, respectively. Moreover, in data set [3], the MIC came out at 32 µM (≈ 14.6 µg/mL). Besides, the Ratio in data set [4] is recorded as 11.
